From patent publication US10456379B2, “Imidazole-based antimicrobial agents” (priority 2014, dated 2019) come the findings set out here.

Data set [1] concerns Staphylococcus aureus MSSA (Newman). The experiment in a line: Broth microdilution MIC assay, Staphylococcus aureus MSSA (Newman). In kind it is cell-based. The conditions noted are these: for Antibacterial activity Staphylococcus aureus (MSSA): MIC class score, MIC100, broth microdilution, Newman strain. In general terms: In broth dilution the organism is exposed to a series of concentrations in liquid medium.

The test system of data set [2] is Streptococcus pneumoniae (Chester, ATCC49619). The experiment in a line: Broth microdilution MIC assay, Streptococcus pneumoniae. The conditions noted are these: for MIC: Streptococcus pneumoniae, ATCC49619, read-out: Antibacterial activity, SP (Streptococcus pneumoniae), MIC class; for Antibacterial activity Streptococcus pneumoniae: MIC class score, MIC100, broth microdilution. In kind it is cell-based.

For data set [3], the system named is daptomycin-resistant Staphylococcus aureus (from MRSA COL). The experiment in a line: Broth microdilution MIC assay, daptomycin-resistant MRSA. The data set is classed as cell-based. The following applies: 24 h, read-out: Antibacterial activity, MRSA strains with additional resistance, D (daptomycin), MIC class.
The subject of data set [4] is moenomycin-resistant Staphylococcus aureus (from MRSA COL). As to the kind of experiment: Broth microdilution MIC assay, moenomycin-resistant MRSA. The data set is classed as cell-based. The conditions noted are these: 24 h, read-out: Antibacterial activity, MRSA strains with additional resistance, M (moenomycin), MIC class.
The subject of data set [5] is vancomycin-resistant Staphylococcus aureus (from MRSA COL). As to the kind of experiment: Broth microdilution MIC assay, vancomycin-resistant MRSA. The following applies: 24 h, read-out: Antibacterial activity, MRSA strains with additional resistance, V (vancomycin), MIC class. In kind it is cell-based.
Data set [6] concerns vancomycin-resistant Enterococcus faecalis (ATCC51575). The experiment in a line: microbe, parasite or virus in culture. The data set is classed as cell-based.
Data set [7] deals with MRSA (COL) resistant to triclosan. The experiment in a line: Broth microdilution MIC assay, triclosan-resistant MRSA. The following applies: Staphylococcus aureus, read-out: Antibacterial activity, MRSA strains with additional resistance, T (triclosan), MIC class.
In data set [8] the test system is platensimycin-resistant Staphylococcus aureus (from MRSA COL). As to the kind of experiment: Broth microdilution MIC assay, platensimycin-resistant MRSA. The data set is classed as cell-based. The conditions noted are these: 24 h, read-out: Antibacterial activity, MRSA strains with additional resistance, P (platensimycin), MIC class.
Data set [9] has as its system Enterococcus faecalis (ATCC29212). As to the kind of experiment: Broth microdilution MIC assay, Enterococcus faecalis. The conditions noted are these: read-out: Antibacterial activity, EFs (Enterococcus faecalis), MIC class. In kind it is cell-based.
For data set [10], the system named is Mycobacterium smegmatis (mc(2)155). As to the kind of experiment: Broth microdilution MIC assay, Mycobacterium smegmatis.
Data set [11] concerns vancomycin-resistant Enterococcus faecium (ATCC51559). As to the kind of experiment: microbe, parasite or virus in culture. In kind it is cell-based.
Data set [12] deals with Staphylococcus aureus MRSA (COL). The experiment in a line: Broth microdilution MIC assay, Staphylococcus aureus MRSA (COL). In kind it is cell-based. The following applies: for Antibacterial activity Staphylococcus aureus (MRSA): MIC class score, MIC100, broth microdilution, COL strain.
Data set [13] has as its system Enterococcus faecium (AGR15, ATCCBAA-2127). As to the kind of experiment: Broth microdilution MIC assay, Enterococcus faecium. The following applies: ATCCBAA2127, read-out: Antibacterial activity, EFm (Enterococcus faecium), MIC class. The data set is classed as cell-based.
Data set [14] relates to linezolid-resistant Staphylococcus aureus (from MRSA COL). The experiment in a line: Broth microdilution MIC assay, linezolid-resistant MRSA. In kind it is cell-based. The conditions noted are these: 24 h, read-out: Antibacterial activity, MRSA strains with additional resistance, L (linezolid), MIC class.
In data set [15] the test system is Escherichia coli TolC mutant strain ΔtolC. In kind it is cell-based.
The subject of data set [16] is Staphylococcus epidermidis (PCI 1200, ATCC12228). As to the kind of experiment: Broth microdilution MIC assay, Staphylococcus epidermidis. In kind it is cell-based. The conditions noted are these: read-out: Antibacterial activity, SE (Staphylococcus epidermidis), MIC class.
Where [17] appears, read: ATCC51575, vancomycin-resistant Enterococcus faecalis, read-out: Antibacterial activity, VREFs (vancomycin-resistant EFs), MIC class.
Setting [18] is: ATCC51559, vancomycin-resistant Enterococcus faecium, read-out: Antibacterial activity, VREFm (vancomycin-resistant EFm), MIC class.

Molecules are shown by their SMILES. ≈ marks a conversion by molar mass, not a printed value. Where two headings read alike, the source gives them in different places.

`FC(F)(F)Oc1ccccc1-c1ccc(-c2nc(Cl)c(-c3ccccc3)[nH]2)o1` [compound 64]: the “Antibacterial activity Staphylococcus aureus (MSSA)” value in [1] was 2 (MIC100 of 11-20 μg/ml). For the same compound, the MIC in data set [2] is less than 1 µg/mL; in data set [3] it was 1 to 3 µg/mL (≈ 2.47 to 7.41 µM); in data set [4], 1 to 3 µg/mL (≈ 2.47 to 7.41 µM); in data set [5], 1 to 3 µg/mL (≈ 2.47 to 7.41 µM).
Turning to `Cc1[nH]c(-c2ccc(-c3ccccc3OC(F)(F)F)o2)nc1-c1ccc(Cl)cc1` [compound 24], the MIC in data set [3] was 1 to 3 µg/mL (≈ 2.39 to 7.16 µM); in [6] (setting [17]), 20 to 50 µg/mL (≈ 47.8 to 119 µM); in [7], 1 to 3 µg/mL (≈ 2.39 to 7.16 µM); in data set [5] it was 1 to 3 µg/mL (≈ 2.39 to 7.16 µM); in data set [8] it was 11 to 20 µg/mL (≈ 26.3 to 47.8 µM); in data set [9], 20 to 50 µg/mL (≈ 47.8 to 119 µM).
On to `Cc1nc(-c2ccc(-c3ccc(Cl)cc3Cl)o2)[nH]c1-c1ccccc1` [compound 1], for which the “Antibacterial activity, MS (Mycobacterium smegmatis), MIC class” value (from here on “Antibacterial activity, MS”) in data set [10] is recorded as 2 (MIC100 of 11-20 μg/ml). Also, the MIC in data set [4] was 3 to 10 µg/mL (≈ 8.12 to 27.1 µM); in data set [11] (setting [18]), 20 to 50 µg/mL (≈ 54.2 to 135 µM); in data set [8], 3 to 10 µg/mL (≈ 8.12 to 27.1 µM).
`Cc1nc(-c2ccc(-c3ccccc3OC(F)(F)F)o2)[nH]c1-c1cccc(Cl)c1` [compound 21]: the “Antibacterial activity Staphylococcus aureus (MSSA)” value in [1] is recorded as 3 (MIC100 of 3-10 μg/ml). Further, the MIC in [6] (setting [17]) fell in the range of 20 to 50 µg/mL (≈ 47.8 to 119 µM); in data set [11] (setting [18]), 20 to 50 µg/mL (≈ 47.8 to 119 µM); in data set [7], 3 to 10 µg/mL (≈ 7.16 to 23.9 µM); in data set [8], 3 to 10 µg/mL (≈ 7.16 to 23.9 µM); in data set [9], 20 to 50 µg/mL (≈ 47.8 to 119 µM); in [12] (Staphylococcus aureus, MRSA, read-out: Antibacterial activity, MRSA (Staphylococcus aureus MRSA), MIC class) it was 3 to 10 µg/mL (≈ 7.16 to 23.9 µM). For the same compound, the “Antibacterial activity Staphylococcus aureus (MRSA)” value in data set [12] was 3 (MIC100 of 3-10 μg/ml).
In the case of `Cc1[nH]c(-c2ccc(-c3ccc(C(F)(F)F)cc3)o2)nc1-c1ccc(Cl)cc1` [compound 47], the “Antibacterial activity, MS” value in data set [10] was 3 (MIC100 of 3-10 μg/ml). In addition, the MIC in [6] (setting [17]), in data set [11] (setting [18]), in data set [13] and in data set [9] was 20 to 50 µg/mL (≈ 49.7 to 124 µM) in each case. Further, in data set [12], the “Antibacterial activity Staphylococcus aureus (MRSA)” value is recorded as 3 (MIC100 of 3-10 μg/ml).
Regarding `Cc1[nH]c(-c2ccc(-c3cccc(F)c3C)o2)nc1-c1ccccc1` [compound 60], in [2], the “Antibacterial activity Streptococcus pneumoniae” value was 3 (MIC100 of 2-5 μg/ml). Moreover, the results for the MIC in [3], in data set [14] and in [9] were 1 to 3 µg/mL (≈ 3.01 to 9.03 µM), 1 to 3 µg/mL (≈ 3.01 to 9.03 µM) and 20 to 50 µg/mL (≈ 60.2 to 150 µM), respectively. Further, in data set [10], the “Antibacterial activity, MS” value is 2 (MIC100 of 11-20 μg/ml).
For `CN(C)Cc1[nH]c(-c2ccc(-c3ccccc3C(F)(F)F)o2)nc1-c1ccccc1` [compound 70], the “Antibacterial activity Streptococcus pneumoniae” value in [2] is 3 (MIC100 of 2-5 μg/ml). Further, the MIC in data set [2] was in the range of 2 to 5 µg/mL (≈ 4.86 to 12.2 µM); in data set [3], 3 to 10 µg/mL (≈ 7.29 to 24.3 µM); in [6] (setting [17]) it was 11 to 20 µg/mL (≈ 26.7 to 48.6 µM); in data set [11] (setting [18]), 11 to 20 µg/mL (≈ 26.7 to 48.6 µM); in [16], 11 to 20 µg/mL (≈ 26.7 to 48.6 µM); in data set [13] it was 11 to 20 µg/mL (≈ 26.7 to 48.6 µM). For the same compound, the MIC in data set [9] lay within 11 to 20 µg/mL (≈ 26.7 to 48.6 µM). In addition, the “Antibacterial activity, EC Δ (Escherichia coli ΔtoIC), MIC class” value in [15] was 3 (MIC100 of 3-10 μg/ml).
As to `Cc1[nH]c(-c2ccc(-c3ccc(C(F)(F)F)c(Cl)c3)o2)nc1-c1ccc(F)cc1` [compound 49], in data set [1], the “Antibacterial activity Staphylococcus aureus (MSSA)” value is given as 3 (MIC100 of 3-10 μg/ml). Moreover, the “Antibacterial activity Streptococcus pneumoniae” value in data set [2] is given as 3 (MIC100 of 2-5 μg/ml). Moreover, the MIC lay within 2 to 5 µg/mL (≈ 4.75 to 11.9 µM) in [2]; 1 to 3 µg/mL (≈ 2.38 to 7.13 µM) in data set [3]; 20 to 50 µg/mL (≈ 47.5 to 119 µM) in data set [6] (Enterococcus faecalis, ATCC51575, read-out: Antibacterial activity, VREFs (vancomycin-resistant EFs), MIC class); 20 to 50 µg/mL (≈ 47.5 to 119 µM) in [11] (Enterococcus faecium, ATCC51559, read-out: Antibacterial activity, VREFm (vancomycin-resistant EFm), MIC class); 1 to 3 µg/mL (≈ 2.38 to 7.13 µM) in data set [7]; 11 to 20 µg/mL (≈ 26.1 to 47.5 µM) in data set [16]. For the same compound, the MIC in data set [14] was in the range of 11 to 20 µg/mL (≈ 26.1 to 47.5 µM); in [13], 20 to 50 µg/mL (≈ 47.5 to 119 µM); in data set [9] it was 11 to 20 µg/mL (≈ 26.1 to 47.5 µM). In addition, the “Antibacterial activity Staphylococcus aureus (MRSA)” value in data set [12] is 2 (MIC100 of 11-20 μg/ml).
As to `Cc1[nH]c(-c2ccc(-c3ccc(OC(F)(F)F)cc3Cl)o2)nc1-c1ccc(F)cc1` [compound 51], the “Antibacterial activity Staphylococcus aureus (MSSA)” value in data set [1] was 2 (MIC100 of 11-20 μg/ml). Also, the MIC in [1] (Staphylococcus aureus, read-out: Antibacterial activity, MSSA (Staphylococcus aureus MSSA), MIC class) fell in the range of 11 to 20 µg/mL (≈ 25.2 to 45.8 µM); in data set [3] it was 1 to 3 µg/mL (≈ 2.29 to 6.87 µM); in data set [7] it was 3 to 10 µg/mL (≈ 6.87 to 22.9 µM); in data set [8], 11 to 20 µg/mL (≈ 25.2 to 45.8 µM).
